From US20150376654A1 (priority 2011, published 2015)
Where two headings read alike, the source gives them in different places.

Experiments:
[1] = test system: Clostridium ljungdahlii pMTL83155-groESL (phosphotransacetylase promoter); settings: construct with the phosphotransacetylase/acetate kinase operon promoter
Procedure: In addition, the effect of different promoter sequences was evaluated. The two strong C. autoethanogenum promoters of pyruvate:ferredoxin oxidoreductase and phosphotransacetylase/acetate kinase operon were used.

[2] = test system: Zymomonas mobilis or Lactococcus strains; settings: cited from earlier work
[3] = test system: C. autoethanogenum DSM10061 plasmid control (pMTL83157) transformants; test: microbe, parasite or virus in culture
Procedure: (§1) Anaerobic ethanol was administered at 12 hour post inoculation.
(§2) The experiment was first conducted as described above using PETC medium and autotrophic conditions with CO as substrate (FIG. 16a) and afterwards repeated using a different growth medium and heterotrophic conditions with fructose as substrate to rule out the effect of the growth media and substrate (FIG. 16b). A plasmid control was included. […] For ethanol challenge assay, 500 μL of two day old cultures were inoculated into each of five 60 mL serum bottles containing 20 mL of selective MMYF medium and incubated at 37° C. without agitation. […] Static incubation at 37° C. was allowed for 80-100 hours and the growth was monitored by measuring the optical density at a wavelength of 600 nm using Jenway 7300 spectrophotometer. Microscope examinations were routinely carried out.
(§3) The experiment was first conducted as described above using PETC medium and autotrophic conditions with CO as substrate (FIG. 16a) and afterwards repeated using a different growth medium and heterotrophic conditions with fructose as substrate to rule out the effect of the growth media and substrate (FIG. 16b). A plasmid control was included. Both plasmid control (pMTL83157) transformants and chaperone over-expressing (pMTL83156-groESL) transformants were cultured anaerobically in MMYF medium supplemented with freshly prepared 7.5 μg/mL thiamphenicol (final concentration). For ethanol challenge assay, 500 μL of two day old cultures were inoculated into each of five 60 mL serum bottles containing 20 mL of selective MMYF medium and incubated at 37° C. without agitation. […] Static incubation at 37° C. was allowed for 80-100 hours and the growth was monitored by measuring the optical density at a wavelength of 600 nm using Jenway 7300 spectrophotometer. Microscope examinations were routinely carried out.

[4] = test system: Clostridium ljungdahlii DSM13583 pMTL83156-groESL transformants
[5] = test system: majority of bacteria; settings: cited from earlier work
[6] = test system: Clostridium ljungdahlii DSM13583 pMTL83157 plasmid control
[7] = test system: Clostridium autoethanogenum DSM10061
Procedure: (§4) The ethanol tolerance of three acetogenic strains Clostridium ljungdahlii DSM13583, Clostridium autoethanogenum DSM10061, and C. autoethanogenum DSM23693 was tested in serum bottles.
(§5) Ethanol was added in various concentrations to an active growing culture at 37° C. in PETC medium (Table 1) with 30 psi steel mill gas as substrate. The media was prepared by using standard anaerobic techniques (Hungate R E. A roll tube method for cultivation of strict anaerobes, In Norris J R and Ribbons D W (eds.), Methods in Microbiology, vol. 3B. Academic Press, N Y, 1969: 117-132; Breznak J A and Costilow R N, Physicochemical factors in growth, In Gerhardt P (ed.), Methods for general and molecular bacteriology. American Society for Microbiology, Washington, 1994: 137-154). […] Slightly acidified water was used (0.005 M H2SO4) as mobile phase with a flow rate of 0.7 ml/min. To remove proteins and other cell residues, 400 μl samples were mixed with 100 μl of a 2% (w/v) 5-Sulfosalicylic acid and centrifuged at 14,000×g for 3 min to separate precipitated residues. 10 μl of the supernatant were then injected into the HPLC for analyses.

[8] = test system: Clostridium ljungdahlii DSM13583; settings: 50 g/L ethanol, serum bottle studies
Procedure: as §4, §5

[9] = test system: Clostridium autoethanogenum DSM23693
Procedure: as §4, §5

[10] = test system: C. autoethanogenum DSM10061 chaperone over-expressing (pMTL83156-groESL) transformants; settings: for OD600 reached: 37 h post inoculation, MMYF medium
Procedure: as §2, §3

[11] = test system: Clostridium ljungdahlii DSM13583 pMTL83156-grpE-dnaK-dnaJ transformants
[12] = test system: C. autoethanogenum DSM10061 pMTL83156-grpE-dnaK-dnaJ transformant; settings: 5 g/L, 10 g/L and 25 g/L ethanol, up to 102 h post inoculation
Procedure: as §1, §2
The experiment was first conducted as described above using PETC medium and autotrophic conditions with CO as substrate (FIG. 16a) and afterwards repeated using a different growth medium and heterotrophic conditions with fructose as substrate to rule out the effect of the growth media and substrate (FIG. 16b). A plasmid control was included. […] Static incubation at 37° C. was allowed for 80-100 hours and the growth was monitored by measuring the optical density at a wavelength of 600 nm using Jenway 7300 spectrophotometer. […]

[13] = test system: C. autoethanogenum DSM23693 transformed strain carrying plasmid pMTL85246-GroESL; settings: PETC media, 30 psi steel mill gas, biomass at 600 nm
Procedure: (§6) To investigate whether overexpression of GroESL enhances ethanol tolerance of C. autoethanogenum DSM23693, both wild-type (WT), i.e. parental microorganism and transformed strain carrying plasmid pMTL85246-GroESL were challenged with different concentrations of ethanol (FIG. 8).
(§7) Growth experiments in triplicates were carried out in 50 ml PETC media (Table 1) in serum bottles sealed with rubber stoppers and 30 psi steel mill gas (collected from New Zealand Steel site in Glenbrook, NZ; composition: 44% CO, 32% N2, 22% CO2, 2% H2) in the headspace as sole energy and carbon source. […] All cultures were inoculated to the same optical density using the same pre-culture for either wild-type (parental) or transformed strain. Changes in biomass were measured spectrophotometrically at 600 nm until growth ceased. The maximum biomass of each culture was compared with the unchallenged culture.

[14] = test system: C. autoethanogenum DSM23693 wild-type (WT), parental; settings: PETC media, 30 psi steel mill gas
Procedure: as §6, §7

[15] = test system: Two species of the genus Clostridium; settings: cited from earlier work
[16] = test system: Clostridium acetobutylicum overproducing GroESL; settings: overproduction of GroESL; cited from earlier work
[17] = Clostridium autoethanogenum, DSM10061, read-out: OD600 inhibition (% reduction in OD600 relative to unchallenged culture)
[18] = 5 g/L ethanol added after 12 hours, 66 hours
[19] = 50 g/L ethanol, serum bottle studies

Question: With `CCO` [ethanol] as the molecule, how does the “ethanol tolerance over the wild-type” value [1] read?
Answer: didn't enhance ethanol tolerance

Question: And the tolerated ethanol [2]?
Answer: more than 10%

Question: What about the “time to exceed OD600 0.25” value ([3]; 5 g/L ethanol added 12 hour post inoculation, MMYF medium) of the same molecule?
Answer: more than 102 h

Question: And the OD600 reached ([3]; 25 g/L ethanol added 12 hour post inoculation, 78 h post inoculation, MMYF medium)?
Answer: 0.29

Question: What about the inhibition at 10000 µg/mL [3, 17] of the same molecule?
Answer: 74%

Question: And the inhibition at 25000 µg/mL [3, 17]?
Answer: 79%

Question: What about the “change in OD600” value [4] of the same molecule?
Answer: reduction in OD600

Question: What about the “ethanol tolerance over the wild-type” value [4] of the same molecule?
Answer: significantly enhanced

Question: What about the “time to reach OD600 of ~0.6 relative to plasmid control” value [4] of the same molecule?
Answer: significantly earlier

Question: And the OD600 [4, 18]?
Answer: 0.97

Question: And the OD600 ([4]; 25 g/L ethanol added after 12 hours, 36 h post inoculation)?
Answer: 0.42

Question: And the maximum tolerated ethanol [5]?
Answer: 4-7%

Question: What about the “change in OD600” value [6] of the same molecule?
Answer: reduction in OD600

Question: And the OD600 [6, 18]?
Answer: ~0.66

Question: What about the OD600 ([6]; 10 g/L ethanol added after 12 hours, 101 h post inoculation) of the same molecule?
Answer: 0.67

Question: And the OD600 ([6]; 25 g/L ethanol added after 12 hours, 30 h post inoculation)?
Answer: 0.20

Question: And the “growth in presence of ethanol” value ([7]; 25 g/L ethanol)?
Answer: unable to grow

Question: And the “growth in presence of ethanol” value [7, 19]?
Answer: none of the strains was able to grow

Question: And the “growth in presence of ethanol” value [8]?
Answer: none of the strains was able to grow

Question: What about the “natural tolerance to ethanol” value ([9]; 25 g/L ethanol) of the same molecule?
Answer: tolerant

Question: And the “growth in presence of ethanol” value [9, 19]?
Answer: none of the strains was able to grow

Question: What about the “ethanol concentration at which growth was inhibited” value ([9]; serum bottles, PETC medium, 37° C., 30 psi steel mill gas) of the same molecule?
Answer: 10-20 g/l

Question: And the OD600 reached ([10]; 5 g/L ethanol added 12 hour post inoculation)?
Answer: 0.38

Question: What about the “growth relative to plasmid control” value ([10]; 5 g/L, 10 g/L and 25 g/L ethanol at 12 hour post inoculation) of the same molecule?
Answer: significantly earlier growth

Question: What about the “growth in presence of ethanol” value ([10]; 25 g/L ethanol) of the same molecule?
Answer: able to grow

Question: And the OD600 reached ([10]; 25 g/L ethanol added 12 hour post inoculation)?
Answer: 0.31

Question: What about the “growth in presence of ethanol” value ([10]; 50 g/L ethanol) of the same molecule?
Answer: able to grow

Question: And the “biomass relative to plasmid control” value ([10]; all levels of ethanol challenge)?
Answer: higher biomass

Question: What about the “OD600 relative to plasmid controls” value [11] of the same molecule?
Answer: higher OD600 than plasmid controls

Question: And the “time to reach OD600 of ~0.6 relative to plasmid control” value [11]?
Answer: significantly earlier

Question: What about the OD600 [11, 18] of the same molecule?
Answer: 1.12

Question: What about the OD600 ([11]; 10 g/L ethanol added after 12 hours, 114 h post inoculation) of the same molecule?
Answer: 1.15

Question: And the OD600 ([11]; 25 g/L ethanol added after 12 hours, 36 hrs. post inoculation)?
Answer: 0.48

Question: What about the “increase in OD600” value ([11]; 50 g/L ethanol challenge at 12 hour post inoculation) of the same molecule?
Answer: 0.096

Question: What about the “growth inhibition by ethanol challenge relative to plasmid control” value [12] of the same molecule?
Answer: significantly less inhibited

Question: And the “doublings of culture when challenged with ethanol” value ([13]; 45 g/l ethanol)?
Answer: 2.14 times

Question: And the “doublings of culture when challenged with ethanol” value ([13]; 60 g/l ethanol)?
Answer: 1.27 times

Question: And the “doubling of culture when challenged with ethanol” value ([14]; 45 g/l ethanol, biomass at 600 nm)?
Answer: 0.39 doubling

Question: What about the “biomass change when ethanol was added” value ([14]; 60 g/l ethanol) of the same molecule?
Answer: biomass even dropped

Question: What about the “growth after addition of ethanol” value ([14]; 60 g/l ethanol) of the same molecule?
Answer: ceased

Question: With butanol as the molecule, how does the tolerated butanol level [15] read?
Answer: around 1.5%

Question: What about the “tolerated butanol level (hardly exceeded)” value [5] of the same molecule?
Answer: 1.5-2.5%

Question: And the “reduction of inhibition by butanol challenge compared to the wild-type” value [16]?
Answer: up to 85%
